From ChEMBL document CHEMBL2321685, “Lead optimization of isocytosine-derived xanthine oxidase inhibitors” (Bioorg Med Chem Lett, 2013)
The source made the active and inactive calls. The calls are words filed in the database; no cut-off is given here.

What was measured:
[1] = target: Xanthine dehydrogenase/oxidase (Bos taurus, UniProt P80457)
Description: Inhibition of bovine xanthine oxidase-mediated uric acid production after 30 mins by spectrophotometric analysis

[2] = system: Rattus norvegicus; experiment: Cmax in Sprague-Dawley rat assessed as 2-(4-(2-amino-6-hydroxypyrimidin-4-yl)-2-cyanophenoxy)-2-methylpropanoic acid level at 10 mg/kg, po; format: ADME, organism-based; set-up: dose 10 mg/kg, route oral; conditions: in vivo
[3] = system: Rattus norvegicus; experiment: Tmax in Sprague-Dawley rat assessed as 2-(4-(2-amino-6-hydroxypyrimidin-4-yl)-2-cyanophenoxy)-2-methylpropanoic acid level at 10 mg/kg, po; format: ADME, organism-based; set-up: dose 10 mg/kg, route oral; conditions: in vivo
[4] = system: Rattus norvegicus; experiment: Elimination half life in Sprague-Dawley rat assessed as 2-(4-(2-amino-6-hydroxypyrimidin-4-yl)-2-cyanophenoxy)-2-methylpropanoic acid level at 10 mg/kg, po; format: ADME, organism-based; set-up: dose 10 mg/kg, route oral; conditions: in vivo
[5] = (§1) Metabolic stability in rat plasma assessed as compound remaining after 60 mins; format: ADME, cell-free; conditions: read-out: Stability
[6] = Elimination half life in Sprague-Dawley rat at 10 mg/kg, po; format: ADME, organism-based; set-up: dose 10 mg/kg, route oral; conditions: in vivo, read-out: beta t1/2 (converted)
[7] = Tmax in Sprague-Dawley rat at 10 mg/kg, po; format: ADME, organism-based; set-up: dose 10 mg/kg, route oral; conditions: in vivo
[8] = (§2) Cmax in Sprague-Dawley rat at 10 mg/kg, po; format: ADME, organism-based; set-up: dose 10 mg/kg, route oral; conditions: Sprague-Dawley, in vivo
[9] = (§3) Metabolic stability in rat liver S9 fraction assessed as compound remaining after 60 mins; format: ADME, subcellular; conditions: liver S9 fraction, read-out: Stability
[10] = system: Rattus norvegicus; experiment: AUClast in Sprague-Dawley rat assessed as 2-(4-(2-amino-6-hydroxypyrimidin-4-yl)-2-cyanophenoxy)-2-methylpropanoic acid level at 10 mg/kg, po; format: ADME, organism-based, Plasma; set-up: time 0 - last, dose 10 mg/kg, route oral; conditions: in vivo
[11] = (§4) Metabolic stability in rat liver microsomes assessed as compound remaining after 60 mins; format: ADME, Microsome; conditions: liver microsomes, read-out: Stability
[12] = AUClast in Sprague-Dawley rat at 10 mg/kg, po; format: ADME, organism-based; set-up: time 0 - last, dose 10 mg/kg, route oral; conditions: plasma
[13] = Initial plasma concentration in Sprague-Dawley rat at 2 mg/kg, iv; format: ADME, organism-based; set-up: dose 2 mg/kg, route intravenous
[14] = Oral bioavailability in Sprague-Dawley rat at 10 mg/kg; format: ADME, organism-based; conditions: in vivo
[15] = system: Rattus norvegicus; experiment: Antihyperuricemic activity in po dosed rat assessed as reduction in potassium oxonate-induced serum uric acid level administered at 1 hr prior to potassium oxonate-challenge measured up to 5 hrs; format: functional
[16] = system: Plasma; experiment: as §1; format: ADME, cell-free; conditions: 1 h
[17] = system: Liver; experiment: as §3; format: ADME, subcellular; conditions: s9, 1 h
[18] = system: Liver microsomes; experiment: as §4; format: ADME, Microsome; conditions: microsomes, 1 h
[19] = system: Rattus norvegicus; experiment: Antihyperuricemic activity in rat assessed as reduction in potassium oxonate-induced serum uric acid level at 50 mg/kg, po administered at 1 hr prior to potassium oxonate-challenge measured up to 5 hrs relative to control; format: functional, organism-based; set-up: dose 50 mg/kg
[20] = system: Rattus norvegicus; experiment: Antihyperuricemic activity in rat assessed as reduction in potassium oxonate-induced serum uric acid level at 10 mg/kg, po administered at 1 hr prior to potassium oxonate-challenge measured up to 5 hrs relative to allopurinol; format: functional; set-up: scale not given: the % may be the effect or the level left
[21] = Elimination half life in Sprague-Dawley rat at 2 mg/kg, iv; format: ADME, organism-based; set-up: dose 2 mg/kg, route intravenous; conditions: in vivo, read-out: beta t1/2 (converted)
[22] = Cmax in Sprague-Dawley rat at 2 mg/kg, iv; format: ADME, organism-based; set-up: dose 2 mg/kg, route intravenous; conditions: in vivo
[23] = Clearance in Sprague-Dawley rat at 2 mg/kg, iv; format: ADME, organism-based; set-up: dose 2 mg/kg, route intravenous; conditions: in vivo
[24] = AUClast in Sprague-Dawley rat at 2 mg/kg, iv; format: ADME, organism-based; set-up: time 0 - last, dose 2 mg/kg, route intravenous; conditions: plasma
[25] = Tmax in Sprague-Dawley rat at 2 mg/kg, iv; format: ADME, organism-based; set-up: dose 2 mg/kg, route intravenous; conditions: in vivo
[26] = Volume of distribution in Sprague-Dawley rat at 2 mg/kg, iv; format: ADME, organism-based; set-up: dose 2 mg/kg, route intravenous; conditions: in vivo
[27] = system: Rattus norvegicus; experiment: Antihyperuricemic activity in rat assessed as reduction in potassium oxonate-induced serum uric acid level at 30 mg/kg, po administered at 1 hr prior to potassium oxonate-challenge measured up to 5 hrs relative to allopurinol; format: functional; set-up: scale not given: the % may be the effect or the level left
[28] = system: Rattus norvegicus; experiment: Tmax in Sprague-Dawley rat assessed as Methyl 4-((4-(2-amino-6-hydroxypyrimidin-4-yl)-2-cyanophenoxy)methyl)cyclohexanecarboxylate level at 10 mg/kg, po; format: ADME, organism-based; set-up: dose 10 mg/kg, route oral; conditions: in vivo
[29] = system: Rattus norvegicus; experiment: AUClast in Sprague-Dawley rat assessed as Methyl 4-((4-(2-amino-6-hydroxypyrimidin-4-yl)-2-cyanophenoxy)methyl)cyclohexanecarboxylate level at 10 mg/kg, po; format: ADME, organism-based, Plasma; set-up: time 0 - last, dose 10 mg/kg, route oral; conditions: in vivo
[30] = system: Rattus norvegicus; experiment: Elimination half life in Sprague-Dawley rat assessed as Methyl 4-((4-(2-amino-6-hydroxypyrimidin-4-yl)-2-cyanophenoxy)methyl)cyclohexanecarboxylate level at 10 mg/kg, po; format: ADME, organism-based; set-up: dose 10 mg/kg, route oral; conditions: in vivo
[31] = system: Rattus norvegicus; experiment: Cmax in Sprague-Dawley rat assessed as Methyl 4-((4-(2-amino-6-hydroxypyrimidin-4-yl)-2-cyanophenoxy)methyl)cyclohexanecarboxylate level at 10 mg/kg, po; format: ADME, organism-based; set-up: dose 10 mg/kg, route oral; conditions: in vivo
[32] = system: Rattus norvegicus; experiment: as §2; format: ADME, organism-based; set-up: dose 10 mg/kg, route oral; conditions: in vivo, BLD = below limit of detection

Chain of Xanthine dehydrogenase/oxidase (P80457 whole entry): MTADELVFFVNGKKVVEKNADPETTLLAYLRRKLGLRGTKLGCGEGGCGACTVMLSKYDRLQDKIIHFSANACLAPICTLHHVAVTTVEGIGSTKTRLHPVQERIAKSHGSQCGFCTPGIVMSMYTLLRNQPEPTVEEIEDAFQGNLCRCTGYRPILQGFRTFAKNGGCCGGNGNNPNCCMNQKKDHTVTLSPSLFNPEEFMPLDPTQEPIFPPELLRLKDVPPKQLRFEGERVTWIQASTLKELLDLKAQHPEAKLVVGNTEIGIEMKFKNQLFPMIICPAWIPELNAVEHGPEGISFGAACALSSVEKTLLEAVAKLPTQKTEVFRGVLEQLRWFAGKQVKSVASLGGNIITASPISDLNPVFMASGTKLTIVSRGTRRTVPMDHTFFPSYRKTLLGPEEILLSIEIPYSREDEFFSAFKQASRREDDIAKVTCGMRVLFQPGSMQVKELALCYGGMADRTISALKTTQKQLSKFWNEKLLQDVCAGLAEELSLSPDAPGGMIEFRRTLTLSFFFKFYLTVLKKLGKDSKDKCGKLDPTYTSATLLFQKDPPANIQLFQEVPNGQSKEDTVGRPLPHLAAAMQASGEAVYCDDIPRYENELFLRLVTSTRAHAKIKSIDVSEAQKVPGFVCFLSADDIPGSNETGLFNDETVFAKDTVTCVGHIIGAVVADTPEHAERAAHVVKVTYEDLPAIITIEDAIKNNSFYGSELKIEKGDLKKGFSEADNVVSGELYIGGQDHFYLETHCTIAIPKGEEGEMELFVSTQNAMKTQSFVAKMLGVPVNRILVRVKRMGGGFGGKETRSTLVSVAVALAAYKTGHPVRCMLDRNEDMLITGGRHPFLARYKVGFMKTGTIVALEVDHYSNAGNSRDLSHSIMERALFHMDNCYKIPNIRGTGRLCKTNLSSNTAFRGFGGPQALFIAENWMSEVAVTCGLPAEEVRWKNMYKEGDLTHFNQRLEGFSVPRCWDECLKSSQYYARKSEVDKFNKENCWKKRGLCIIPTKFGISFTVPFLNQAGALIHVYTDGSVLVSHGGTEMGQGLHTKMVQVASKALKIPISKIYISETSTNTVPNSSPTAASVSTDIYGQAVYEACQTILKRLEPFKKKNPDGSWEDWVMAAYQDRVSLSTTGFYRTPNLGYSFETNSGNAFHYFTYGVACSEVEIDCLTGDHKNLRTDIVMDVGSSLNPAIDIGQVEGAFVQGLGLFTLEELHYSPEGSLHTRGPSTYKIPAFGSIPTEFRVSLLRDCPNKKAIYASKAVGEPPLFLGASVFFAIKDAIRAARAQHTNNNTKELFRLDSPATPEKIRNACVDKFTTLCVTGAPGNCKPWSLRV

N#Cc1cc(-c2cc(O)nc(N)n2)ccc1OCc1ccccc1C(F)(F)F
IC50 [1]: 9 nM

COC(=O)C(C)(C)COc1ccc(-c2cc(=O)[nH]c(N)n2)cc1C#N
Cmax [2]: 8460 nM
Tmax [3]: 4 h
beta t1/2 [4]: 11.6 h
remaining at 1 h [5]: 30.2%
half-life [6]: 2.04 h
Tmax [7]: 0.75 h
IC50 [1]: 15 nM
Cmax [8]: 40 nM
remaining at 1 h [9]: 93.6%
AUClast [10]: 22699.83 ng·h/mL
remaining at 1 h [11]: 95.9%
AUC(0-t) [12]: 44.8 ng·h/mL

CC(C)C(C)Oc1ccc(-c2cc(O)nc(N)n2)cc1C#N (centres undefined)
IC50 [1]: 13 nM

N#Cc1cc(-c2ccnc(N)n2)ccc1OCc1ccc(F)cc1
IC50 [1]: 150 nM

CC(C)COc1ccc(-c2cc(C(=O)O)nc(N)n2)cc1C#N
IC50 [1]: 400 nM

Cc1nc(O)cc(-c2ccc(OCC(C)C)c(C#N)c2)n1
IC50 [1]: > 30000 nM

N#Cc1cc(-c2ccnc(N)n2)ccc1OCC1CCCCC1
IC50 [1]: 50 nM

CC(C)COc1ccc(-c2cc(=O)[nH]c(N)n2)cc1C#N
C0 [13]: 1360 ng/mL
bioavailability [14]: 8.6%
remaining at 1 h [5]: 96%
remaining at 1 h [9]: 65.6%
remaining at 1 h [11]: 91.5%

N#Cc1cc(-c2cc(=O)[nH]c(N)n2)ccc1OCC1CCC1
IC50 [1]: 18 nM

N#Cc1cc(-c2ccnc(N)n2)ccc1OCC1CCC(C(=O)O)CC1 (centres undefined)
Activity [15]: Active
Stability [16]: Stable
IC50 [1]: 10 nM
Stability [17]: Stable
Stability [18]: Stable

N#Cc1cc(-c2cc(=O)[nH]c(N)n2)ccc1OCc1ccc(C(=O)O)cc1
IC50 [1]: 5 nM

COC(=O)C1CCC(COc2ccc(-c3ccnc(N)n3)cc2C#N)CC1 (centres undefined)
Activity [15]: Active
remaining at 1 h [5]: 28%
IC50 [1]: 10 nM
remaining at 1 h [9]: 11%
remaining at 1 h [11]: 0%

CC(C)(C)c1ccc(COc2ccc(-c3cc(=O)[nH]c(N)n3)cc2C#N)cc1
IC50 [1]: 19 nM

CC(C)(COc1ccc(-c2cc(O)nc(N)n2)cc1C#N)C(=O)O
remaining at 1 h [5]: 33.9%
half-life [6]: 4 h
IC50 [1]: 5 nM
Cmax [8]: 6600 nM
remaining at 1 h [9]: 98.9%
remaining at 1 h [11]: 90.2%
AUC(0-t) [12]: 19500 ng·h/mL

N#Cc1cc(-c2cc(O)nc(N)n2)ccc1OCC1CCCCC1
remaining at 1 h [5]: 94%
half-life [6]: 18 h
Tmax [7]: 1 h
IC50 [1]: 10 nM
Cmax [8]: 40 nM
remaining at 1 h [9]: 86.8%
remaining at 1 h [11]: 97.3%
AUC(0-t) [12]: 109 ng·h/mL

N#Cc1cc(-c2ccnc(N)n2)ccc1OCc1ccccc1C(F)(F)F
IC50 [1]: 60 nM

CCC(CC)COc1ccc(-c2cc(=O)[nH]c(N)n2)cc1C#N
IC50 [1]: 10 nM

N#Cc1cc(-c2cc(=O)[nH]c(N)n2)ccc1OCc1ccc(F)cc1C(F)(F)F
IC50 [1]: 11 nM

N#Cc1cc(-c2ccnc(N)n2)ccc1OCc1ccc(F)cc1C(F)(F)F
IC50 [1]: 80 nM

CC(C)COc1ccc(-c2cc(O)ncn2)cc1C#N
Activity [19]: Active

COC(=O)c1ccc(COc2ccc(-c3cc(O)nc(N)n3)cc2C#N)cc1
IC50 [1]: 9 nM

N#Cc1cc(-c2ccnc(N)n2)ccc1OCC1CCC1
IC50 [1]: 400 nM

CC(C)COc1ccc(-c2cc(C(N)=O)nc(N)n2)cc1C#N
IC50 [1]: 3900 nM

N#Cc1cc(-c2cc(O)nc(N)n2)ccc1OCc1ccc(F)cc1
IC50 [1]: 7 nM

CC(C)COc1ccc(-c2cc(=O)[nH]cn2)cc1C#N
remaining at 1 h [5]: 90.5%
half-life [6]: 9.88 h
Tmax [7]: 0.25 h
IC50 [1]: 60 nM
Cmax [8]: 1150 nM
remaining at 1 h [9]: 13.5%
remaining at 1 h [11]: 49.6%
AUC(0-t) [12]: 416 ng·h/mL

CC(C)COc1ccc(-c2ccnc(N)n2)cc1C#N
Activity [20]: 49%
C0 [13]: 3720 ng/mL
Activity [15]: Dose-dependent effect
ED50 [15]: 10 mg/kg
bioavailability [14]: 13.4%
half-life [21]: 5.96 h
Cmax [22]: 9940 nM
clearance [23]: 10.7 mL/min/kg
remaining at 1 h [5]: 88.4%
AUC(0-t) [24]: 2990 ng·h/mL
half-life [6]: 1.35 h
Tmax [7]: 0.75 h
IC50 [1]: 80 nM
Tmax [25]: 1.8 min
Cmax [8]: 4190 nM
Vd [26]: 5.5 L/kg
remaining at 1 h [9]: 71.3%
remaining at 1 h [11]: 21.2%
AUC(0-t) [12]: 2000 ng·h/mL
Activity [27]: 70%

CC(C)(C)COc1ccc(-c2cc(=O)[nH]c(N)n2)cc1C#N
remaining at 1 h [5]: 99.7%
half-life [6]: 10.7 h
Tmax [7]: 0.5 h
IC50 [1]: 4 nM
Cmax [8]: 160 nM
AUC(0-t) [12]: 297 ng·h/mL

COC(=O)C1CCC(COc2ccc(-c3cc(O)nc(N)n3)cc2C#N)CC1 (centres undefined)
Tmax [28]: 2 h
AUClast [29]: 795.24 ng·h/mL
remaining at 1 h [5]: 0%
beta t1/2 [30]: 3.9 h
IC50 [1]: 19 nM
Activity [19]: Active
Cmax [31]: 340 nM
Cmax [32]: BLD
remaining at 1 h [9]: 0%
remaining at 1 h [11]: 0%

N#Cc1cc(-c2cc(=O)[nH]c(N)n2)ccc1OCC1CCC(C(=O)O)CC1 (centres undefined)
remaining at 1 h [5]: 106%
Tmax [7]: 4 h
IC50 [1]: 9 nM
Cmax [8]: 50 nM
remaining at 1 h [9]: 101%
remaining at 1 h [11]: 90.6%
AUC(0-t) [12]: 119 ng·h/mL

COc1ccc(-c2cc(O)nc(N)n2)cc1C#N
IC50 [1]: 160 nM

COC(=O)C(C)(C)COc1ccc(-c2cc(O)nc(N)n2)cc1C#N
Activity [19]: Active

N#Cc1cc(-c2cc(=O)[nH]c(N)n2)ccc1OCc1ccccc1
IC50 [1]: 17 nM
